Patent EP4268824A1 (Manros Therapeutics, priority 2022, dated 2023)

Test: LogD determined by HPLC
Assay type: physicochemical

Row | chromatographic logD | Compound
1 | 2.29 | CC(C)c1cnc2c(NCc3cccnc3)nc(N3CCC(O)C3)nn12 (centres unmarked) [compound 77, 1-[7-Isopropyl-4-(3-pyridylmethylamino)imidazo[2,1-f][1,2,4]triazin-2-yl]pyrrolidin-3-ol]
2 | 2.1 | CC(C)c1cnc2c(NCc3ccccc3)nc(NCCCN(C)C)nn12 [compound 5, N4-Benzyl-N2-[3-(dimethylamino)propyl]-7-isopropyl-imidazo[2,1-f][1,2,4]triazine-2,4-diamine]
3 | 2.71 | CC(C)c1cnc2c(NCc3ccccc3)nc(N3CCCCC3CCO)nn12 (centres unmarked) [compound 87, 2-[1-[4-(Benzylamino)-7-isopropyl-imidazo[2,1-f][1,2,4]triazin-2-yl]-2-piperidyl]ethanol]
4 | 3.5 | CC(C)c1cnc2c(NCc3cccnc3)nc(N3CCSCC3)nn12 [compound 84, 7-Isopropyl-N-(3-pyridylmethyl)-2-thiomorpholino-imidazo[2,1-f][1,2,4]triazin-4-amine]
5 | 3.12 | CC(C)c1cnc2c(NCc3ccccc3)nc(NCc3cccnc3)nn12 [compound 124, N4-Benzyl-7-isopropyl-N2-(3-pyridylmethyl)imidazo[2,1-f][1,2,4]triazine-2,4-diamine]
6 | 3.26 | CC(C)c1cnc2c(NCc3ccccc3)nc(NCc3ccccn3)nn12 [compound 123, N4-Benzyl-7-isopropyl-N2-(2-pyridylmethyl)imidazo[2,1-f][1,2,4]triazine-2,4-diamine]
7 | 4.64 | CC(C)c1cnc2c(NCc3ccccc3)nc(Nc3ccccc3)nn12 [compound 114, N4-Benzyl-7-isopropyl-N2-phenyl-imidazo[2,1-f][1,2,4]triazine-2,4-diamine]
8 | 2.3 | CC(C)c1cnc2c(NCc3cccnc3)nc(N3CCC(O)CC3)nn12 [compound 86, 1-[7-Isopropyl-4-(3-pyridylmethylamino)imidazo[2,1-f][1,2,4]triazin-2-yl]piperidin-4-ol]
9 | 2.93 | CC(C)c1cnc2c(NCc3ccccc3)nc(NC3CCC(O)CC3)nn12 (centres unmarked) [compound 63, 4-[[4-(Benzylamino)-7-isopropyl-imidazo[2,1-f][1,2,4]triazin-2-yl]amino]cyclohexanol]
10 | 2.98 | CC(C)c1cnc2c(NCc3ccccc3)nc(NCc3cnn(C)c3)nn12 [compound 115, N4-Benzyl-7-isopropyl-N2-[(1-methylpyrazol-4-yl)methyl]imidazo[2,1-f][1,2,4]triazine-2,4-diamine]
11 | 4.42 | COC1CCN(c2nc(NCc3ccccc3)c3ncc(C(C)C)n3n2)C1 (centres unmarked) [compound 79, N-Benzyl-7-isopropyl-2-(3-methoxypyrrolidin-1-yl)imidazo[2,1-f][1,2,4]triazin-4-amine]
12 | 3.19 | CC(C)c1cnc2c(NCc3ccccc3)nc(N3CCC(O)CC3)nn12 [compound 85, 1-[4-(Benzylamino)-7-isopropyl-imidazo[2,1-f][1,2,4]triazin-2-yl]piperidin-4-ol]
13 | 4.48 | COC1CCC(Nc2nc(NCc3ccccc3)c3ncc(C(C)C)n3n2)CC1 (centres unmarked) [compound 64, N4-Benzyl-7-isopropyl-N2-(4-methoxycyclohexyl)imidazo[2,1-f][1,2,4]triazine-2,4-diamine]
14 | 3 | Cc1cnc(CNc2nc(NCc3ccccc3)c3ncc(C(C)C)n3n2)cn1 [compound 126]
15 | 3.5 | COCCNc1nc(NCc2ccccc2)c2ncc(C(C)C)n2n1 [compound 1, N4-Benzyl-7-isopropyl-N2-(2-methoxyethyl)imidazo[2,1-f][1,2,4]triazine-2,4-diamine]
16 | 2.14 | CC(C)c1cnc2c(NCc3ccccc3)nc(NC3CCN(C)CC3)nn12 [compound 61, N4-Benzyl-7-isopropyl-N2-(1-methyl-4-piperidyl)imidazo[2,1-f][1,2,4]triazine-2,4-diamine]
17 | 3.32 | CC(C)c1cnc2c(NCc3ccccc3)nc(NC(C)(C)CO)nn12 [compound 18, 2-[[4-(Benzylamino)-7-isopropyl-imidazo[2,1-f][1,2,4]triazin-2-yl]amino]-2-methyl-propan-1-ol]
18 | 3.26 | CC(C)c1cnc2c(NCc3ccccc3)nc(NC3CCC[C@@H]3O)nn12 (stereo partly drawn) [compound 65, (1S)-2-[[4-(Benzylamino)-7-isopropyl-imidazo[2,1-f][1,2,4]triazin-2-yl]amino]cyclopentanol]
19 | 2.36 | CC(C)c1cnc2c(NCc3cccnc3)nc(NC3CCC[C@@H]3O)nn12 (stereo partly drawn) [compound 66, (1S)-2-[[7-Isopropyl-4-(3-pyridylmethylamino)imidazo[2,1-f][1,2,4]triazin-2-yl]amino]cyclopentanol]
20 | 5.9 | CC(C)c1cnc2c(NCc3ccccc3)nc(NCC3CCCCC3)nn12 [compound 105, N4-Benzyl-N2-(cyclohexylmethyl)-7-isopropyl-imidazo[2,1-f][1,2,4]triazine-2,4-diamine]

Row | chromatographic logD | Compound
21 | 3.12 | CC(C)c1cnc2c(NCc3ccccc3)nc(Nc3nccn3C)nn12 [compound 109, N4-Benzyl-7-isopropyl-N2-(1-methylimidazol-2-yl)imidazo[2,1-f][1,2,4]triazine-2,4-diamine]
22 | 4.13 | CSCCNc1nc(NCc2ccccc2)c2ncc(C(C)C)n2n1 [compound 3, N4-Benzyl-7-isopropyl-N2-(2-methylsulfanylethyl)imidazo[2,1-f][1,2,4]triazine-2,4-diamine]
23 | 3.07 | CC(C)c1cnc2c(NCc3ccccc3)nc(NCc3ccncc3)nn12 [compound 125, N4-Benzyl-7-isopropyl-N2-(4-pyridylmethyl)imidazo[2,1-f][1,2,4]triazine-2,4-diamine]
24 | 4.6 | CC(C)c1cnc2c(NCc3ccccc3)nc(NCc3ccccc3)nn12 [compound 121, N2,N4-Dibenzyl-7-isopropyl-imidazo[2,1-f][1,2,4]triazine-2,4-diamine]
25 | 3.06 | COC1CCN(c2nc(NCc3cccnc3)c3ncc(C(C)C)n3n2)C1 (centres unmarked) [compound 80, 7-Isopropyl-2-(3-methoxypyrrolidin-1-yl)-N-(3-pyridylmethyl)imidazo[2,1f][1,2,4]triazin-4-amine]
26 | 4.74 | CC(C)c1cnc2c(NCc3ccccc3)nc(NCCOc3ccccc3)nn12 [compound 2, N4-Benzyl-7-isopropyl-N2-(2-phenoxyethyl)imidazo[2,1-f][1,2,4]triazine-2,4-diamine]
27 | 3.28 | Cc1cc(C)nc(CNc2nc(NCc3ccccc3)c3ncc(C(C)C)n3n2)n1 [compound 127, N4-Benzyl-N2-[(4,6-dimethylpyrimidin-2-yl)methyl]-7-isopropyl-imidazo[2,1-f][1,2,4]triazine-2,4-diamine]
28 | 5.05 | CC(C)c1cnc2c(NCc3ccccc3)nc(N3CCSCC3)nn12 [compound 83, N-Benzyl-7-isopropyl-2-thiomorpholino-imidazo[2,1-f][1,2,4]triazin-4-amine]
29 | 4.6 | COC1CCN(c2nc(NCc3ccccc3)c3ncc(C(C)C)n3n2)CC1 [compound 81, N-Benzyl-7-isopropyl-2-(4-methoxy-1-piperidyl)imidazo[2,1-f][1,2,4]triazin-4-amine]
30 | 3.6 | CC(C)c1cnc2c(NCc3ccccc3)nc(NC3CCCC[C@@H]3O)nn12 (stereo in doubt) [compound 62, (1S)-2-[[4-(Benzylamino)-7-isopropyl-imidazo[2,1-f][1,2,4]triazin-2-yl]amino]cyclohexanol]
31 | 4.64 | CC(C)c1cnc2c(NCc3ccccc3)nc(NCc3ccc(F)cc3)nn12 [compound 122, N4-Benzyl-N2-[(4-Fluorophenyl)methyl]-7-isopropyl-imidazo[2,1-f][1,2,4]triazine-2,4-diamine]
32 | 2.49 | CC(C)c1cnc2c(NCc3ccccc3)nc(NCc3nccn3C)nn12 [compound 116, N4-Benzyl-7-isopropyl-N2-[(1-methylimidazol-2-yl)methyl]imidazo[2,1-f][1,2,4]triazine-2,4-diamine]
33 | 2.2 | CC(C)c1cnc2c(NCc3ccccc3)nc(NCC3CCN(C)CC3)nn12 [compound 104]
34 | 2.16 | CC(C)c1cnc2c(NCc3ccccc3)nc(NCCC3CCCN3C)nn12 (centres unmarked) [compound 106, N4-Benzyl-7-isopropyl-N2-[2-(1-methylpyrrolidin-2-yl)ethyl]imidazo[2,1-f][1,2,4]triazine-2,4-diamine]
35 | 3.16 | CC(C)c1cnc2c(NCc3ccccc3)nc(N3CCC(O)C3)nn12 (centres unmarked) [compound 76, 1-[4-(Benzylamino)-7-isopropyl-imidazo[2,1-f][1,2,4]triazin-2-yl]pyrrolidin-3-ol]
36 | 2.89 | CC(C)c1cnc2c(NCc3ccccc3)nc(Nc3cnn(C)c3)nn12 [compound 110, N4-Benzyl-7-isopropyl-N2-(1-methylpyrazol-4-yl)imidazo[2,1-f][1,2,4]triazine-2,4-diamine]
37 | 3.15 | COC1CCN(c2nc(NCc3cccnc3)c3ncc(C(C)C)n3n2)CC1 [compound 82, 7-Isopropyl-2-(4-methoxy-1-piperidyl)-N-(3-pyridylmethyl)imidazo[2,1-f][1,2,4]triazin-4-amine]
38 | 5.47 | CC(C)c1cnc2c(NCc3ccccc3)nc(NC3CCCCC3)nn12 [compound 59, N4-Benzyl-N2-cyclohexyl-7-isopropyl-imidazo[2,1-f][1,2,4]triazine-2,4-diamine]
39 | 3.04 | CO[C@H]1CCCC1Nc1nc(NCc2cccnc2)c2ncc(C(C)C)n2n1 (stereo partly drawn) [compound 68, 7-Isopropyl-N2-[(2S)-2-methoxycyclopentyl]-N4-(3-pyridylmethyl)imidazo[2,1-f][1,2,4]triazine-2,4-diamine]
40 | 4.25 | CO[C@H]1CCCC1Nc1nc(NCc2ccccc2)c2ncc(C(C)C)n2n1 (stereo partly drawn) [compound 67, N4-Benzyl-7-isopropyl-N2-[(2S)-2-methoxycyclopentyl]imidazo[2,1-f][1,2,4]triazine-2,4-diamine]

Row | Compound | chromatographic logD
41 | CC(C)c1cnc2c(NCc3ccccc3)nc(N3CC4(COC4)C3)nn12 [compound 78, N-Benzyl-7-isopropyl-2-(2-oxa-6-azaspiro[3.3]heptan-6-yl)imidazo[2,1-f][1,2,4]triazin-4-amine] | 3.42
